# From patent US11739093B2, “Substituted pyrazolopyrazines, imidazopyrazines and [1,2,4]triazolopyrazines as allosteric SHP2 inhibitors” (Revolution Medicines, Inc., priority 2017, dated 2023)
# Molecular target: SHP2 (Homo sapiens (Human), UniProt Q06124)
# Test: SHP2 Allosteric Inhibition Assay
# Format: biochemical
# Conditions: 0.2 nM SHP2 with 0.5 μM Activating Peptide 1 or 2; surrogate substrate DiFMUP; prompt fluorescence, kinetic read
# Text: Without wishing to be bound by theory, SHP is allosterically activated through binding of bis-tyrosyl-phosphorylated peptides to its Src Homology 2 (SH2) domains. The latter activation step leads to the release of the auto-inhibitory interface of SHP2, which in turn renders the SHP2 protein tyrosine phosphatase (PTP) active and available for substrate recognition and reaction catalysis. The catalytic activity of SHP2 was monitored using the surrogate substrate DiFMUP in a prompt fluorescence assay format.
# The phosphatase reactions were performed at room temperature in 96-well black polystyrene plate, flat bottom, non-binding surface (Corning, Cat #3650) using a final reaction volume of 100 μL and the following assay buffer conditions: 50 mM HEPES, pH 7.2, 100 mM NaCl, 0.5 mM EDTA, 0.05% P-20, 1 mM DTT.
# The inhibition of SHP2 by compounds of the disclosure (concentrations varying from 0.00005-10 μM) was monitored using an assay in which 0.2 nM of SHP2 was incubated with 0.5 μM of Activating Peptide 1 (sequence: H2N-LN(pY)IDLDLV(dPEG8)LST(pY)ASINFQK-amide) or Activating Peptide 2 (sequence: H2N-LN(pY)AQLWHA(dPEG8)LTI(pY)ATIRRF-amide). After 30-60- minutes incubation at 25° C., the surrogate substrate DiFMUP (Invitrogen, Cat #D6567) was added to the reaction and activity was determined by a kinetic read using a microplate reader (Envision, Perkin-Elmer or Spectramax M5, Molecular Devices). The excitation and emission wavelengths were 340 nm and 450 nm, respectively. Initial rates were determined from a linear fit of the data, and the inhibitor dose response curves were analyzed using normalized IC50 regression curve fitting with control based normalization.
row,IC50 [µM],Compound
1,0.19,"Cc1nc(N2CCC(C)(N)CC2)c2cncn2c1-c1cccc(Cl)c1Cl [Compound 2, 1-(5-(2,3-dichlorophenyl)-6-methylimidazo[1,5-a]pyrazin-8-yl)-4-methylpiperidin-4-amine]"
2,1.1,"Cc1nc(N2CCC3(CC2)CO[C@@H](C)[C@H]3N)c2nccn2c1Sc1ccnc(N)c1Cl [Compound 6, (3S,4S)-8-{5-[(2-amino-3-chloropyridin-4-yl)sulfanyl]-6-methylimidazo[1,2-a]pyrazin-8-yl}-3-methyl-2-oxa-8-azaspiro[4.5]decan-4-amine]"
3,0.34,"CC1(N)CCN(c2ncc(Sc3ccnc(N)c3Cl)c3nsnc23)CC1 [Compound 15, 4-((4-(4-amino-4-methylpiperidin-1-yl)-[1,2,5]thiadiazolo[3,4-c]pyridin-7-yl)thio)-3-chloropyridin-2-amine]"
4,0.083,"C[C@@H]1OCC2(CCN(c3ncc(Sc4ccnc(N)c4Cl)c4ncncc34)CC2)[C@@H]1N [Compound 16, (3S,4S)-8-{8-[(2-amino-3-chloropyridin-4-yl)sulfanyl]pyrido[4,3-d]pyrimidin-5-yl}-3-methyl-2-oxa-8-azaspiro[4.5]decan-4-amine]"
